The text below walks through data of ChEMBL document CHEMBL1153260, “The synthesis of aminobenzazepinones as anti-phenylalanine dipeptide mimics and their use in nep inhibition” (Bioorg Med Chem Lett, 1996).

SMILES strings stand for the structures.

The target in the assay is T1, Neprilysin (Rattus norvegicus, UniProt P07861).
T1 sequence (P07861 whole entry): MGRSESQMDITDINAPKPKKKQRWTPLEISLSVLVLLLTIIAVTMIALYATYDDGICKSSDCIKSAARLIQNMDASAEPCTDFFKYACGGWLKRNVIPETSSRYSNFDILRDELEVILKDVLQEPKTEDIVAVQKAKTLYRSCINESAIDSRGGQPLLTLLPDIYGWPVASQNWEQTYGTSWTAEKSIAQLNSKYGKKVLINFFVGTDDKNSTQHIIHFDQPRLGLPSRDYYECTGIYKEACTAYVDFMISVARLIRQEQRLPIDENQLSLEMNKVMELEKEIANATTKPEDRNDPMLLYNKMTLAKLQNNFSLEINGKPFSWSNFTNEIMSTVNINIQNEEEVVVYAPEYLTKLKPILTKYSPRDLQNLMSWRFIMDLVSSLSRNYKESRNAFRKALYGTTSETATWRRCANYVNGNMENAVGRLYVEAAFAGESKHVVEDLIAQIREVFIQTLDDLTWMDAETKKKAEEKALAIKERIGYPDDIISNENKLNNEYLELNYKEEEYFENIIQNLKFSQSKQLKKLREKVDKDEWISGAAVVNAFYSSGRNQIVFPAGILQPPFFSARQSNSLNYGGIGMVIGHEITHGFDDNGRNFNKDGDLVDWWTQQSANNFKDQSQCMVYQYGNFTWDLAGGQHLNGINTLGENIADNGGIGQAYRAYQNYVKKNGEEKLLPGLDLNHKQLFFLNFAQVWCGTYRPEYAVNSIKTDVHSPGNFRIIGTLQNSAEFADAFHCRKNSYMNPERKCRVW
The experiment in a line: Compound was tested for inhibition of neutral endopeptidase (NEP).

`CC(C)C[C@@H](C(=O)O)N1Cc2ccccc2C[C@H](NC(=O)[C@H](S)Cc2ccccc2)C1=O`: the affinity corresponds to a Ki of 0.4 nM.
In the case of `CC(C)CC(C(=O)O)N1CCO[C@@H](c2ccccc2)[C@H](NC(=O)[C@H](S)Cc2ccccc2)C1=O` (single isomer, unassigned), affinity was put at a Ki of 330 nM. Against the preceding molecule, the Ki is about 820-fold higher.
For the molecule `O=C(O)C1CCCC2c3ccccc3C[C@H](NC(=O)[C@H](S)Cc3ccccc3)C(=O)N12` (stereo partly drawn), the affinity corresponds to a Ki of 0.07 nM.
